According to BigSolDB 2.1:

In the case of `O=C(O)c1ccccc1`, the solubility (mole fraction) (in 2-pentanone, 283.15 K) is reported as 0.163, the solubility (mole fraction) (in 2-pentanone, 288.15 K) is reported as 0.18 and the solubility (mole fraction) (in 2-pentanone, 293.15 K) is reported as 0.196. For the same compound, the solubility (mole fraction) (in 2-pentanone, 298.15 K) was 0.215, the solubility (mole fraction) (in 2-pentanone, 303.15 K) was 0.234 and the solubility (mole fraction) (in 2-pentanone, 308.15 K) was 0.256. The solubility (mole fraction) (in 2-pentanone, 313.15 K) was 0.279, the solubility (mole fraction) (in 2-pentanone, 318.15 K) was 0.315 and the solubility (mole fraction) (in 2-pentanone, 323.15 K) was 0.349. The solubility (mole fraction) (in 2-pentanone, 328.15 K) was 0.388, the solubility (mole fraction) (in diacetone alcohol, 283.15 K) was 0.234 and the solubility (mole fraction) (in diacetone alcohol, 288.15 K) was 0.251. For the same compound, the solubility (mole fraction) (in diacetone alcohol, 293.15 K) was 0.269, the solubility (mole fraction) (in diacetone alcohol, 298.15 K) was 0.287 and the solubility (mole fraction) (in diacetone alcohol, 303.15 K) was 0.306. It also gave a solubility (mole fraction) (in diacetone alcohol, 308.15 K) of 0.315, a solubility (mole fraction) (in diacetone alcohol, 313.15 K) of 0.336 and a solubility (mole fraction) (in diacetone alcohol, 318.15 K) of 0.367. For the same compound, the solubility (mole fraction) (in diacetone alcohol, 323.15 K) was 0.396, the solubility (mole fraction) (in diacetone alcohol, 328.15 K) was 0.426 and the solubility (mole fraction) (in isooctane, 283.15 K) was 0.002. For the same compound, the solubility (mole fraction) (in isooctane, 288.15 K) was 0.003, the solubility (mole fraction) (in isooctane, 293.15 K) was 0.005 and the solubility (mole fraction) (in isooctane, 298.15 K) was 0.007. For the same compound, the solubility (mole fraction) (in isooctane, 303.15 K) was 0.01, the solubility (mole fraction) (in isooctane, 308.15 K) was 0.013 and the solubility (mole fraction) (in isooctane, 313.15 K) was 0.018. It also gave a solubility (mole fraction) (in isooctane, 318.15 K) of 0.023, a solubility (mole fraction) (in isooctane, 323.15 K) of 0.031 and a solubility (mole fraction) (in isooctane, 328.15 K) of 0.04. The solubility (mole fraction) (in methyl acetate, 283.15 K) was 0.125, the solubility (mole fraction) (in methyl acetate, 288.15 K) was 0.152 and the solubility (mole fraction) (in methyl acetate, 293.15 K) was 0.175. The solubility (mole fraction) (in methyl acetate, 298.15 K) was 0.198, the solubility (mole fraction) (in methyl acetate, 303.15 K) was 0.213 and the solubility (mole fraction) (in methyl acetate, 308.15 K) was 0.237. It also gave a solubility (mole fraction) (in methyl acetate, 313.15 K) of 0.26, a solubility (mole fraction) (in methyl acetate, 318.15 K) of 0.282 and a solubility (mole fraction) (in methyl acetate, 323.15 K) of 0.318. For the same compound, the solubility (mole fraction) (in methyl acetate, 328.15 K) was 0.348, the solubility (mole fraction) (in n-pentyl acetate, 283.15 K) was 0.091 and the solubility (mole fraction) (in n-pentyl acetate, 288.15 K) was 0.112. It also gave a solubility (mole fraction) (in n-pentyl acetate, 293.15 K) of 0.133, a solubility (mole fraction) (in n-pentyl acetate, 298.15 K) of 0.159 and a solubility (mole fraction) (in n-pentyl acetate, 303.15 K) of 0.179. For the same compound, the solubility (mole fraction) (in n-pentyl acetate, 308.15 K) was 0.198, the solubility (mole fraction) (in n-pentyl acetate, 313.15 K) was 0.226 and the solubility (mole fraction) (in n-pentyl acetate, 318.15 K) was 0.252. It also gave a solubility (mole fraction) (in n-pentyl acetate, 323.15 K) of 0.282, a solubility (mole fraction) (in n-pentyl acetate, 328.15 K) of 0.316 and a solubility (mole fraction) (in tributyl phosphate, 283.15 K) of 0.492. It also gave a solubility (mole fraction) (in tributyl phosphate, 288.15 K) of 0.507, a solubility (mole fraction) (in tributyl phosphate, 293.15 K) of 0.522 and a solubility (mole fraction) (in tributyl phosphate, 298.15 K) of 0.53. The solubility (mole fraction) (in tributyl phosphate, 303.15 K) was 0.543, the solubility (mole fraction) (in tributyl phosphate, 308.15 K) was 0.553 and the solubility (mole fraction) (in tributyl phosphate, 313.15 K) was 0.563. The solubility (mole fraction) (in tributyl phosphate, 318.15 K) was 0.581, the solubility (mole fraction) (in tributyl phosphate, 323.15 K) was 0.6 and the solubility (mole fraction) (in tributyl phosphate, 328.15 K) was 0.631.
